According to PMC4703859, “Efficient backbone cyclization of linear peptides by a recombinant asparaginyl endopeptidase” (Nature Communications, 2015):
Where a SMILES comes first, the peptide text is derived from it. [ ]: non-standard residue; d: D form. The star is where a group is joined. Sta = CC(C)C[C@H](N)[C@@H](O)CC(=O)O; Isovaleryl = CC(C)CC(=O)*

How the values were obtained:
[1] = system: rOaAEP1b; assay: Inhibition assay, enzyme activity against wt IQF peptide; format: biochemical, Oldenlandia affinis; details: 40 min pre-incubation, wt IQF peptide 11 μM, 90 min
Experimental: To investigate the impact of inhibitors on enzyme activity against the wt IQF peptide, rOaAEP1b (4.4 μg ml^–1 total protein) was incubated with the indicated concentration of E64, Ac-YVAD-CHO, pepstatin A and iodoacetamide for 40 min before addition to the substrate (11 μM). Enzyme activity against the wt IQF peptide was then assessed as described above.
Supplementary Figure 3: rOaAEP1b activity against the wt IQF peptide in the presence of protease inhibitors. rOaAEP1b (~4.4 µg ml-1 total protein) was allowed to cleave the wt IQF peptide (11 µM) and fluorescence intensity was recorded every minute for 90 min. The enzyme activity in the presence of inhibitors is reported relative to a no inhibitor control at the 90 min time point. Each data point represents the average of two technical replicates and error bars report the range.
(1 picture or pasted object on this page, not shown here)

[2] = system: rOaAEP1b; assay: Cyclization assay of linear peptides followed by MALDI MS; format: biochemical, Oldenlandia affinis
Experimental: Linear target peptides (280 μM) were incubated with rOaAEP1b (12 μg ml^−1 total protein unless otherwise indicated) in activity buffer. The reaction was allowed to proceed for up to 22 h at room temperature and was analysed by matrix-assisted laser desorption/ionization MS (MALDI MS), RP-HPLC or NMR as appropriate.
To confirm the presence of cyclic product, R1 derivatives processed by rOaAEP1b were subsequently digested with endoGlu-C (25 μg ml^−1) in reaction buffer (50 mM Tris-HCl, 0.5 mM Glu–Glu, pH 8) such that the final dilution of the cyclization mix was 1:4. The reaction was allowed to proceed for 18 h at 37 °C before analysis by MALDI MS.
Cyclization of linear target peptides was monitored by MALDI MS. The reaction mixture (10–20 μl) was desalted using C18 zip tips and eluted in 4 μl 50% acetonitrile, 0.1% trifluoroacetic acid (TFA). A saturated MALDI matrix solution (α–cyano-4-hyroxycinnamic acid) prepared in 95% acetonitrile, 0.1% TFA was diluted 1:22 such that the final matrix solution comprised 90% acetonitrile, 0.1% TFA and 1 mM NH4H2PO4. Eluted samples were mixed 1:4 with the MALDI matrix, spotted onto a MALDI plate and analysed by an Ultraflex III TOF/TOF (Bruker) in positive reflector mode.

[3] = assayed against a small substrate; cited from earlier work
Experimental: The activity of rOaAEP1b against IQF peptides representing wt and mutant versions of the native kB1 C-terminal cleavage site was determined (Table 1; Supplementary Fig. 4a). […] This observation is consistent with the lack of cyclic product generated when the corresponding mutation was introduced in planta. Kinetic parameters (Vmax, Km and kcat) are reported where applicable (Table 1). The tur ...

In the case of `NC(=O)CI` [iodoacetamide], the “effect of inhibitor on rOaAEP1b activity” value ([1]; iodoacetamide 1 mM, 4.4 μg ml^-1 total protein) is reported as “inhibited”.

For Ac-YVAD-CHO, the “effect of inhibitor on rOaAEP1b activity” value ([1]; Ac-YVAD-CHO 500 μM) was “poor inhibitor”.

For “VFAEFLPLFSKFGSRMHILK [R1, anti-malarial peptide structurally unrelated to cyclotides]”, the “processing by rOaAEP1b of R1 peptides lacking a full recognition sequence” value ([2]; 22 h, MALDI MS) was “No processing”, the “cyclization by rOaAEP1b following the addition of N- and C-terminal AEP recognition sequences” value ([2]; 22 h post addition of rOaAEP1b, MALDI MS, cyclic product confirmed by endoGlu-C digestion) was “efficiently cyclized” and the cyclization efficiency ([2]; rOaAEP1b) was ~100%.

In the case of `CC(C)CC(=O)N[C@H](C(=O)N[C@H](C(=O)N[C@@H](CC(C)C)[C@@H](O)CC(=O)N[C@@H](C)C(=O)N[C@@H](CC(C)C)[C@@H](O)CC(=O)O)C(C)C)C(C)C` [pepstatin A] (Isovaleryl-VV[Sta]A[Sta]-OH), the “effect of inhibitor on rOaAEP1b activity” value ([1]; pepstatin A 10 μM) is reported as “not affected”.

With `CC(C)C[C@H](NC(=O)[C@H]1O[C@@H]1C(=O)O)C(=O)NCCCCN=C(N)N` [E64] the “effect of inhibitor on rOaAEP1b activity” value ([1]; E64 250 μM) was “not affected”.

B1: kB1L31A: kB1 precursor with a Leu31Ala mutation (peptide, UniProt P56254 23-124, looked up, variant L31A)
pro-form: SELSDSHKTTLVNEIAEKMLQRKILDGVEATLVTDVAEKMFLRKMKAEAKTSETADQVFLKQLQLKGLPVCGETCVGGTCNTPGCTCSWPVCTRNGAPSLAA
modifications: pro-form
notes: kB1 precursor with a Leu31Ala mutation
With B1 the “rOaAEP1b-mediated processing of modified kB1 and kB2 precursors over time” value ([2]; 280 μM peptide, pH 5, room temperature, 1, 5 and 22 h, MALDI MS, three technical replicates) was “cyclized far more slowly than the wt precursor”.

B2: recombinant human legumain: recombinant human AEP (protein, UniProt Q99538 18-323, looked up)
Legumain: VPIDDPEDGGKHWVVIVAGSNGWYNYRHQADACHAYQIIHRNGIPDEQIVVMMYDDIAYSEDNPTPGIVINRPNGTDVYQGVPKDYTGEDVTPQNFLAVLRGDAEAVKGIGSGKVLKSGPQDHVFIYFTDHGSTGILVFPNEDLHVKDLNETIHYMYKHKMYRKMVFYIEACESGSMMNHLPDNINVYATTAANPRESSYACYYDEKRSTYLGDWYSVNWMEDSDVEDLTKETLHKQYHLVKSHTNTSHVMQYGNKTISTMKVMQFQGMKRKASSPVPLPPVTHLDLTPSPDVPLTIMKRKLMNTN
In the case of B2, the “turnover rate (kcat)” value [3] is listed as ~8 s⁻¹.
